Test results from publication PMC7108740, “Exploring the molecular structures that confer ligand selectivity for galanin type II and III receptors” (PLoS ONE, 2020).
Residue numbers refer to the chain shown, from its start. Ends that are not written are not given here.

Tests used:
Type in all cases: cell-based
[1] = biological target: T1, GALR3 septuple (Homo sapiens, UniProt O60755, A190V/A191F/C272L/G192S/L100F/Y103F/Y107H); test: cAMP assay (inhibition of forskolin-induced cAMP), GALR3 septuple mutant; details: Glosensor-22F cAMP HEK293 cells, agonist 10 min then forskolin 10 μM, mean ± SE, SEM
T1 construct: expressed in transfected cells; host or cells: HEK293 cells stably expressing pGlosensor-22F cAMP plasmid
T1 sequence (O60755 1-368 L100F/Y103F/Y107H/A190V/A191F/G192S/C272L): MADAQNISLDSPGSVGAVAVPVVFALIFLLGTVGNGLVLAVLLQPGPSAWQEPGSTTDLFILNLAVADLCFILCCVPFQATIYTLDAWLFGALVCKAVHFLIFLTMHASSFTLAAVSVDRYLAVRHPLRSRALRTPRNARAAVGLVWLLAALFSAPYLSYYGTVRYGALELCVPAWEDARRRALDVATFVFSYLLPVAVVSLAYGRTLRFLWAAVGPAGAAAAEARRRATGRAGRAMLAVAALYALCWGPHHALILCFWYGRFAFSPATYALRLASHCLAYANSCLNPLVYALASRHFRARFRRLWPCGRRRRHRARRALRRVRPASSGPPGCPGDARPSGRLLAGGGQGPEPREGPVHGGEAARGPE
Protocol: SPX-induced or Qu-SPX-induced cyclic adenosine monophosphate (cAMP) mobilization was measured in HEK293 cells stably expressing the pGlosensor^TM-22F cAMP plasmid (Promega Corp., Madison, WI, USA). The Glosensor-22F cAMP HEK293 cells were seeded on 96-well plates at a density of 2.0 × 10^4 cells/well 24 h before transfection. A mixture including 100 ng expression plasmid and lipofectamine 2000 reagent in diluted Opti-MEM (Gibco) was incubated at room temperature for 20 min. The mixtures were added into each well according to the manufacturer's instructions (Invitrogen, CA, USA). After 48 h, Glosensor cAMP substrates were added to the transfected cells in CO2-independent media. After 2 h, the cells were incubated with a range of agonist concentrations or vehicle for 10 min and then exposed to foskolin (10 μM). Luminescence was measured for up to 30 min using a Microplate Reader (BioTek, Winooski, VT, USA).
Data analysis was performed by non-linear regression with a sigmoidal dose-response curve. The concentrations of agonists that induced half-maximal stimulation (EC50) were calculated using the GraphPad PRISM5 software (GraphPad software, Inc., San Diego, CA). All data are presented as the mean ± standard error (SE) of at least three independent experiments. […]

[2] = biological target: T2, human GALR2 (Homo sapiens, UniProt O43603); test: SRE-luc luciferase assay, WT GALR2; details: SRE-luc in HEK293 Gqi cells, ligand 6 h, mean ± SE, at least three independent experiments, SEM
T2 construct: host or cells: HEK293 cells stably expressing Gqi
T2 sequence (O43603 1-387): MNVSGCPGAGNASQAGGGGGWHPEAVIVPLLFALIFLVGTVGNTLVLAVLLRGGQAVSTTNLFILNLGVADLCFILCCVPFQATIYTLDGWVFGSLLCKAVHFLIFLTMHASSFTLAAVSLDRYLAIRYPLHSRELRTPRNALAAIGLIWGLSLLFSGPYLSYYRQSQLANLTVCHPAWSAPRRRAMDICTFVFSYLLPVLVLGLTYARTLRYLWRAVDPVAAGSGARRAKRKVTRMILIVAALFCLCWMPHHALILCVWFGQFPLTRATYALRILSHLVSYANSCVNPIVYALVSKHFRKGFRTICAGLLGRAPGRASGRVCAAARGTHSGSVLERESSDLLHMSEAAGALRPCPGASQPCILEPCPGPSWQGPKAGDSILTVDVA
Source text: (§1) The pcDNA3.1 vector was purchased from Invitrogen (San Diego, CA, USA). The serum response element (SRE)-luciferase (SRE-luc) vector containing a single copy of the SRE (CCATATTAGG) conjugated with luciferase was purchased from Stratagene (La Jolla, CA, USA). The cDNAs for human GALR1, GALR2, and GALR3 were obtained from BRN SCIENCE, Inc. The cDNAs were inserted into the EcoRⅠ and XhoⅠ sites of pcDNA3.1.
(§2) HEK293 cells stably expressing the Gqi construct, which allows induction of Gq-dependent signaling pathways upon activation of a Gi-coupled receptor [14, 30], were maintained in Dulbecco's Modified Eagle's Medium (DMEM) in the presence of 10% fetal bovine serum and 1% penicillin and streptomycin. For all transfections, 200 ng DNA (100 ng receptor and 100 ng SRE-luc) mixed with lipofectamine 2000 was applied to 60–80% confluent cells on a multi-well plate according to the manufacturer's instructions (Invitrogen, Carlsbad, CA).
(§3) For luciferase assays, HEK293 Gqi cells were seeded on 48-well plates at a density of 2.5 × 10^4 cells/well one day before transfection. A mixture including 100 ng SRE-luc reporter construct, 100 ng expression plasmid, and lipofectamine 2000 reagent in diluted Opti-MEM (Gibco) was incubated at room temperature for 20 min and then added into each well according to the manufacturer's instructions (Invitrogen, CA, USA). Before exposure to the ligands, the cells were maintained in serum-free DMEM for 16–18 h. Approximately 48 h after transfection, the cells were treated with ligand for 6 h. The cells were then lysed by the addition of 100 μl lysis buffer. The luciferase activity in 50 μl cell extract was determined using a luciferase assay system according to the standard protocol for the Synergy 2 Multi-Mode Microplate Reader (BioTek, Winooski, VT, USA).
(§4) Data analysis was performed by non-linear regression with a sigmoidal dose-response curve. The concentrations of agonists that induced half-maximal stimulation (EC50) were calculated using the GraphPad PRISM5 software (GraphPad software, Inc., San Diego, CA). All data are presented as the mean ± standard error (SE) of at least three independent experiments.

[3] = biological target: T1, GALR3 septuple; test: SRE-luc luciferase assay, GALR3 septuple mutant; details: SRE-luc in HEK293 Gqi cells, ligand 6 h, mean ± SE, SEM
Source text: For domain swapping between GALR2 and GALR3, individual cDNA fragments of interest were amplified by polymerase chain reaction (PCR) with Pfu polymerase (ELPIS Biotech, Daejeon, Korea) and two specific primers, one corresponding to the 5' or 3' end of the GALR2 or GALR3 cDNA and the other to the region of overlap between the two receptors. The two resulting fragments, one from GALR2 and the other from GALR3, were subjected to a second round of PCR to generate the chimeric cDNAs. To construct single, double-, triple-, pentuple-, hextuple-, and septuple-mutant receptors, amino acids of GALR3 were substituted for the amino acids at the corresponding positions in GALR2 using PCR-based site-directed mutagenesis. […]
For luciferase assays, HEK293 Gqi cells were seeded on 48-well plates at a density of 2.5 × 10^4 cells/well one day before transfection. […] The luciferase activity in 50 μl cell extract was determined using a luciferase assay system according to the standard protocol for the Synergy 2 Multi-Mode Microplate Reader (BioTek, Winooski, VT, USA).
Data analysis was performed by non-linear regression with a sigmoidal dose-response curve. The concentrations of agonists that induced half-maximal stimulation (EC50) were calculated using the GraphPad PRISM5 software (GraphPad software, Inc., San Diego, CA). […]

[4] = biological target: T3, GALR3 single mutant S^266T (Homo sapiens, UniProt O60755, S266T); test: SRE-luc luciferase assay, GALR3 S266T; details: GALR3 S^266T; SRE-luc in HEK293 Gqi cells, ligand 6 h; mean ± S.E.; SEM
T3 construct: expressed in transfected cells; host or cells: HEK293 cells stably expressing Gqi
Source text: (§5) For domain swapping between GALR2 and GALR3, individual cDNA fragments of interest were amplified by polymerase chain reaction (PCR) with Pfu polymerase (ELPIS Biotech, Daejeon, Korea) and two specific primers, one corresponding to the 5' or 3' end of the GALR2 or GALR3 cDNA and the other to the region of overlap between the two receptors. The two resulting fragments, one from GALR2 and the other from GALR3, were subjected to a second round of PCR to generate the chimeric cDNAs. To construct single, double-, triple-, pentuple-, hextuple-, and septuple-mutant receptors, amino acids of GALR3 were substituted for the amino acids at the corresponding positions in GALR2 using PCR-based site-directed mutagenesis. All of the chimeric constructs were cloned into the pcDNA3 expression vector at HindⅢ and XbaⅠ sites. The DNA sequences of the chimeras were verified by automatic sequencing. […] The luciferase activity in 50 μl cell extract was determined using a luciferase assay system according to the standard protocol for the Synergy 2 Multi-Mode Microplate Reader (BioTek, Winooski, VT, USA). […] The concentrations of agonists that induced half-maximal stimulation (EC50) were calculated using the GraphPad PRISM5 software (GraphPad software, Inc., San Diego, CA). […]

[5] = biological target: T4, GALR3 single mutant P^267R (Homo sapiens, UniProt O60755, P267R); test: SRE-luc luciferase assay, GALR3 P267R; details: GALR3 P^267R; SRE-luc in HEK293 Gqi cells, ligand 6 h; mean ± S.E.; SEM
T4 construct: expressed in transfected cells; host or cells: HEK293 cells stably expressing Gqi
Source text: as §5

[6] = biological target: T5, GALR3 single mutant F^265P (Homo sapiens, UniProt O60755); test: SRE-luc luciferase assay, GALR3 F265P; details: GALR3 F^265P; SRE-luc in HEK293 Gqi cells, ligand 6 h; mean ± S.E.; SEM
T5 construct: expressed in transfected cells; host or cells: HEK293 cells stably expressing Gqi
Source text: as §5

[7] = biological target: T6, GALR3 (Homo sapiens, UniProt O60755); test: SRE-luc luciferase assay, WT GALR3; set-up: host or cells: HEK293 cells stably expressing Gqi; details: SRE-luc in HEK293 Gqi cells, ligand 6 h, mean ± SE, at least three independent experiments, SEM
T6 sequence (O60755 1-368): T1 sequence (O60755 1-368 L100F/Y103F/Y107H/A190V/A191F/G192S/C272L) with F100L, F103Y, H107Y, V190A, F191A, S192G, L272C
Source text: as §1, §2, §3, §4

[8] = biological target: T7, GALR3 single mutant A^264P (Homo sapiens, UniProt O60755, A264P); test: SRE-luc luciferase assay, GALR3 A264P; details: GALR3 A^264P; SRE-luc in HEK293 Gqi cells, ligand 6 h; mean ± S.E.; SEM
T7 construct: expressed in transfected cells; host or cells: HEK293 cells stably expressing Gqi
Source text: as §5

[9] = biological target: T8, GALR3 single mutant C^272L (Homo sapiens, UniProt O60755, C272L); test: SRE-luc luciferase assay, GALR3 C272L; details: GALR3 C^272L; SRE-luc in HEK293 Gqi cells, ligand 6 h; mean ± S.E.; SEM
T8 construct: expressed in transfected cells; host or cells: HEK293 cells stably expressing Gqi
Source text: as §5

T8 sequence (O60755 whole entry C272L): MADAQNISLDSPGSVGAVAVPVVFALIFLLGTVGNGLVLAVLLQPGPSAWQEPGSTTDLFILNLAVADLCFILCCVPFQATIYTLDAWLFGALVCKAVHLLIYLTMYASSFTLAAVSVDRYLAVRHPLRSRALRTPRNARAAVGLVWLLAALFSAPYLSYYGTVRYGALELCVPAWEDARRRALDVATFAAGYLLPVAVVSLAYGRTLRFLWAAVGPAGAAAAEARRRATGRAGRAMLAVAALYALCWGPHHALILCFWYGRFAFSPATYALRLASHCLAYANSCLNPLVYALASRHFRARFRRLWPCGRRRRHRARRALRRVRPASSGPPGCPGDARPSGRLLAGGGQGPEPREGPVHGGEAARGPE
T4 sequence (O60755 whole entry P267R): as the sequence (O60755 whole entry C272L) above, with P267R, L272C counted along it
T5 sequence (O60755 whole entry F265L): as the sequence (O60755 whole entry C272L) above, with F265L, L272C counted along it
T3 sequence (O60755 whole entry S266T): as the sequence (O60755 whole entry C272L) above, with S266T, L272C counted along it
T7 sequence (O60755 whole entry A264P): as the sequence (O60755 whole entry C272L) above, with A264P, L272C counted along it

NWTPNAALYLFGPQ-NH2 [Qu-SPX]
EC50 [1]: 794 ± 358 nM | EC50 [2]: 87.1 ± 19.5 nM | EC50 [3]: 1100 ± 163 nM

NWTPQAMLYLFGAQ-NH2 [F^11-SPX]
EC50 [4]: 200 ± 29.7 nM | EC50 [5]: 562 ± 173 nM | EC50 [2]: 47.9 ± 11.5 nM | EC50 [6]: 457 ± 118 nM | EC50 [7]: 490 ± 118 nM | EC50 [8]: 589 ± 200 nM | EC50 [9]: 66.1 ± 22.4 nM
